Laboratory results from patent US20100179130A1, “USE OF PIPERINE AND DERIVATIVES THEREOF FOR THE THERAPY OF NEUROLOGICAL CONDITIONS” (SYNGIS Bioscience GmbH & Co. KG, priority 2007, published 2010).

Test system: neural stem cells
Assay: In vitro differentiation assay on adult neural stem cells (beta-III-tubulin promoter firefly/Renilla dual luciferase reporter)
Type: cell-based, rat
Source text: The neuroregenerative effect of the compounds according to the present invention can be assayed in vitro by measuring their stimulation of the differentiation of neural stem cells. Therefore, adult neural stem cells have to be isolated and subsequently cultivated in a suitable culture medium. After several passages in vitro the stem cells have to be co-transfected with a DNA construct coding for two discriminable reporter proteins one of them under the control of a constitutive promoter and the other under the control of a beta-III-tubulin promoter. The beta-III-tubulin promoter is induced during the process of neural stem cell differentiation; therefore the reporter protein under the control of this promoter serves as a marker for the stem cell differentiation in such an in vitro dual reporter assay (Schneider et al., J Clin Investigation 2005; 115:2083-2098). The person skilled in the art knows several suitable constitutive promoters such as the SV40-promoter, the TK-promoter, or the CMV-promoter. As discriminable reporter proteins for such a dual reporter assay one can use discriminable luciferases such as firefly luciferase and Renilla luciferase. The transfected cells have to be incubated with the test compound and with a positive and negative controls for normalization and background correction. As a positive control compound one can use retinoic acid (Guan et al., Cell Tissue Res. 2001; 305:171-176; Jacobs et al., Proc. Natl. Acad. Sci. USA 2006; 103:3902-3907), a suitable negative control is the sham treatment of the cells. The neroregenerative activity of the test compound is determined as the ratio of the signal of the beta-III-tubulin promoter controlled reporter versus the signal of the constitutively expressed reporter and is expressed as fold from the control. This assay is suitable to assess the neuroregenerative activity of piperine and derivatives thereof, but also can be used to screen for other potential neuroregenerative compounds. Preferably, such a screening can be used to test compounds which are already known to be suitable as a medicament in terms of its toxicology, bioavailability, solubility, stability etc.
Neural stem cells were isolated from the subventricular zone of 4 week-old male Wistar rats as described (Maurer et al, Proteome Sci. 2003; 1:4). Cells were cultivated in Neurobasal medium (Invitrogen) supplemented with B27 (Invitrogen), 2 mM L-glutamine, 100 units/ml penicillin, 100 units/ml streptomycin, 20 ng/ml […] (EGF), 20 ng/ml fibroblast growth factor-2 (FGF-2), and 2 μg/ml heparin. Once a week the neural stem cells were passaged and experiments were performed after 4 weeks in vitro. For DNA transfection, the cells were dissociated and plated on poly-L-ornithin/laminin-coated 96-well plates at a density of 50.000 cells/well. Cotransfection with the pGL3-p-βIII-tubulin vector (100 ng/well) and the pRL SV40 vector (100 ng/well) was carried out according to the FuGene6 Transfection protocol (Roche). The pRL SV40 vector (Promega) served as an internal control vector.
To amplify the class III β-tubulin gene promoter (fragment −450-+54), rat genomic DNA was used as a template for PCR (Dennis et al., Gene 2002; 294:269-277). The amplified fragment was inserted into the Mlu I/Xho I site of the pGL3-Basic firefly luciferase reporter vector (Promega) to generate the pGL3-p-βIII-tubulin experimental vector.
After overnight incubation, the plate was decanted and given in 8-fold replicates fresh medium containing piperine (Sigma) or vehicle. As a positive control for in vitro differentiation, stem cells were treated by adding 1 μM retinoic acid (Sigma) to the medium missing the mitogens.
After 48 hrs, the cells were harvested to prepare the cellular extracts for luciferase assay following the directions of the manufacturer (Promega). […]

`O=C(/C=C/C=C/c1ccc2c(c1)OCO2)N1CCCCC1` [Piperine, (E,E)-1-[5-(1,3-benzodioxol-5-yl)-1-oxo-2,4-pentadienyl]piperidine] was tested, and the “differentiation of neural stem cells to neurons, dose dependence” value (0.2 μM up to 25, 50 or 100 μM, compared with sham and 1 μM retinoic acid) was “significantly stimulates” and the fold induction at 1 µM (Rattus norvegicus, Neural stem cell, 1 μM final compound concentration, in comparison to sham treatment, read-out: Stimulation factor for differentiation of neural stem cells) was 2.1.
